Results on ten compounds are retold here after PMC3335822 (PLoS ONE, 2012).

The target in one data set is T1, Eya3(ED) (Mus musculus, UniProt P97480).
T1 construct: The catalytic domain (ED) of mouse Eyes Absent 3 (Eya3(223–510)) was purified; made in house
T1 sequence (P97480 223-510): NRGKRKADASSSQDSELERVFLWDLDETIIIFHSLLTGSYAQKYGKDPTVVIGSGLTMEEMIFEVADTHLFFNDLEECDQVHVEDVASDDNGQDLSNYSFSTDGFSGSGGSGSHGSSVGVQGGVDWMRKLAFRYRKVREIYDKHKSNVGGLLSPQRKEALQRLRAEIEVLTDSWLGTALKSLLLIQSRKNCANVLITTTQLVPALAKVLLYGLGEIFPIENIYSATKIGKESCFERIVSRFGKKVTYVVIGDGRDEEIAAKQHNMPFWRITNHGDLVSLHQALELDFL
Put plainly: pNPP hydrolysis by the catalytic domain of Eya3. Type of data set: biochemical. The conditions noted are these: substrate pNPP 3.4 mM, pH 6, 30°C, 30 minutes. An excerpt: The catalytic domain (ED) of mouse Eyes Absent 3 (Eya3(223–510)) was purified as described before. Human Eyes Absent 3 isoform 2 (representing the major species identified in human cell lines by mass spectrometry and residues 127–573 of NM_001990, isoform 1) was sub-cloned into pDEST565 to express a poly-histidine- Glutathione-S-transferase (His-GST) tagged fusion protein with a TVMV protease site. The protein was purified by glutathione-S-transferase affinity chromatography followed by TVMV cleavage, Ni-NTA chromatography, and finally size exclusion chromatography.
The NCI Diversity Set II was obtained from the NCI in 96-well trays from the NIH Molecular Libraries Program and stored as 10 mM stocks in DMSO. An initial manual screen was conducted using the previously described p-nitrophenylphosphate assay and mouse Eya3(223–510) in a reaction mixture containing 20 mM MES pH 6, 2 mM MgCl2, 125 μM inhibitor, 3.4 mM para-nitrophenol phosphate (pNPP) and 0.01 μg/µL enzyme.
(§1) Compounds were dissolved in DMSO and diluted as needed. […] Reactions were incubated at 30°C for 30 minutes and quenched with 100 mM EDTA pH 10. IC50 values were then calculated directly from regression curves using PRISM. All reported values are the mean of two independent experiments.

The next data set addresses T2, PTP1B (Homo sapiens, UniProt P18031).
T2 construct: made in house
T2 sequence (P18031 1-435): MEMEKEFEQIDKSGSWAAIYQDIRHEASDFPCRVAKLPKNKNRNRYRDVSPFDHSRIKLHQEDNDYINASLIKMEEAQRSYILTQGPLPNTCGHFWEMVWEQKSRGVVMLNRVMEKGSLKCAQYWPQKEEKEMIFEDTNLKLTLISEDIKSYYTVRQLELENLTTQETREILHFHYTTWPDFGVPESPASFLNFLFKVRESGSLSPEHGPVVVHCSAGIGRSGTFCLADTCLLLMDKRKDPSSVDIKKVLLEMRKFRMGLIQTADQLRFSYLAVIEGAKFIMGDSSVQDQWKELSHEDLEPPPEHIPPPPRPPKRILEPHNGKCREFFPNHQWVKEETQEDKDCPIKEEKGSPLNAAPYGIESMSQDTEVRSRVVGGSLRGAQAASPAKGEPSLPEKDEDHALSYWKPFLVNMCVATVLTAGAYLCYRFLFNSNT
Put plainly: pNPP hydrolysis by PTP1B. The conditions noted are these: for pIC50: substrate pNPP. Type of data set: biochemical. How it is done: The catalytic domain of human Eyes Absent 2 was similarly sub-cloned as a poly-histidine fusion construct in the vector pDEST-527. Fusion protein was purified by Ni-NTA chromatography and followed by size-exclusion chromatography over a Superdex-75 column. The relative purity of protein samples was determined using SDS-PAGE. PTP1B was purified as described previously.
as §1

The target in the next data set is T3, human EYA3 (Homo sapiens, UniProt Q99504).
T3 construct: residues 127–573 of NM_001990, isoform 1; His-GST (poly-histidine, glutathione-S-transferase) with TVMV protease site (cleaved yes); made in house
T3 sequence (Q99504 127-573): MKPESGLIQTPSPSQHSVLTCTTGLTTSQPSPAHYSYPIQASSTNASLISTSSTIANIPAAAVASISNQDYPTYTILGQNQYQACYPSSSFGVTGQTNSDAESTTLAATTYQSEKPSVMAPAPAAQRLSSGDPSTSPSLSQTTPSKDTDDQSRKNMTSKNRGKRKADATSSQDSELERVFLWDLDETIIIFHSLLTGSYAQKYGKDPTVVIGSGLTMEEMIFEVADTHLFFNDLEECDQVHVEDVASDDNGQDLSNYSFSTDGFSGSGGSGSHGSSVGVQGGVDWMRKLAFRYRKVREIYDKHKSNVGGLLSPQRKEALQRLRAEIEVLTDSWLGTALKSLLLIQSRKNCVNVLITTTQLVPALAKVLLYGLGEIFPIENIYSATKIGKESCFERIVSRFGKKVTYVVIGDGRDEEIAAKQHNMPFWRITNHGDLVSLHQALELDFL
Kind of data set: pNPP hydrolysis by full-length EYA3. Type of data set: biochemical. The conditions noted are these: full-length human EYA3, substrate pNPP.
From the text: The catalytic domain (ED) of mouse Eyes Absent 3 (Eya3(223–510)) was purified as described before. Human Eyes Absent 3 isoform 2 (representing the major species identified in human cell lines by mass spectrometry and residues 127–573 of NM_001990, isoform 1) was sub-cloned into pDEST565 to express a poly-histidine- Glutathione-S-transferase (His-GST) tagged fusion protein with a TVMV protease site. The protein was purified by glutathione-S-transferase affinity chromatography followed by TVMV cleavage, Ni-NTA chromatography, and finally size exclusion chromatography. […]
as §1

A further data set has as its system MCF10A-EYA2 cells. Kind of data set: Transwell migration of MCF10A cells over-expressing EYA2. Type of data set: cell-based. The following applies: 7.5 μM. On the procedure: (§2) Human umbilical vein endothelial cells (HUVECs) were purchased from Lonza (Walkersville, MD) and maintained in the endothelial cell growth medium (PromoCell, Heidelberg, Germany), under a 5% CO2 atmosphere. MCF10A cells from ATCC were stably transfected with either pcDNA 3.2/V5-DEST (vector control), V5-EYA2 or V5-EYA2(mut). Transwell migration experiments were performed as previously described.

Data set [1] deals with HUVECs. Put plainly: HUVEC tubulogenesis assay on Matrigel. The following applies: up to 7.5 μM. Type of data set: cell-based, human. On the procedure:
Tubulogenesis assays were performed in 15-well micro-slide (ibidi LLC, Verona WI), using growth factor-reduced matrigel (BD Bioscience, Billerica, MA). The matrix was prepared by loading 10 μl of matrigel in each micro-slide well and allowing it to solidify for 30 minutes at 37°C. HUVECs were trypsinized and resuspended at 100,000 cell/ml in EBM +2.5% FBS. 50 μl (5,000 cell) were loaded on top of the solidified matrigel and the preparation was incubated for 20 hours at 37°C in a humidified incubator in a 5% CO2 atmosphere. Bright field images were taken using an inverted microscope at 2.5× magnification, which allowed imaging of the whole well in two pictures that were later merged in Photoshop. Tubular structures were traced and counted using NeuroJ (NIH, USA). In experiments with inhibitor, the inhibitor was added to the cell suspension before loading. Each sample was loaded in triplicate, and each treatment was repeated for reproducibility.

The next data set relates to zebrafish embryos. Kind of data set: Analysis of zebrafish vasculature, Tg(kdrl:EGFP) embryos. Type of data set: in vivo. The conditions noted are these: exposure from about 5 hpf, analysis at 28–30 hpf. How it is done: Tg(kdrl:EGFP)^s843 zebrafish line was used for vascular analysis. Embryos were maintained in fish water until the 50% epiboly stage (5.25 hpf) and were transferred into wells of 24-well plate containing the inhibitors in fish water. All incubation was performed at 28.5°C. The analysis for vascular defects was performed at the 28–30 hpf stages, and embryos were imaged using a fluorescence microscope.

Data set [2] concerns HUVECs. Put plainly: HUVEC transwell migration. It counts as cell-based, human. The conditions noted are these: 5 μM. On the procedure: as §2
The next data set has as its system mouse aortic rings. Kind of data set: Mouse aortic ring assay (ex vivo sprouting angiogenesis, VEGF-stimulated). The following applies: 5 μM, 10 days. On the procedure:
The preparation of rat collagen and the aortic ring assay were carried out as previously described, [50]. Mice were 4 to 6 week old female C57BL/6, and aortic ring explants were cultured at 37°C in a humidified incubator under a 5% CO2 atmosphere.
Each inhibitor was serially diluted (between 0.25 mM and 7.5 mM) to stocks of 1000× the working concentrations in sterile 100% DMSO in order to achieve an equal final concentration of DMSO (0.1% v/v) in all culture conditions. For the experiments, the compounds were diluted in EBM containing 2.5% FBS, penicillin/streptomycin and 20 ng/ml VEGF165 (R&D Systems, Minneapolis, MN). Each compound was applied from the first day of culture over a 10-day period with medium change every two days. In all experiments, the vehicle (DMSO, 0.1%) was used as control. The sprouting density was derived from counting the number of branches per ring, and the extent of angiogenic sprouting was estimated by measuring the total surface area covered by the vessels.

For data set [3] the following is noted: cited from earlier work.

pIC50: −log10 of the molar value.

As for `CC(=O)c1c(C)oc2ccc(O)cc12` [Compound 1g], the pIC50 against Eya3(ED), on PTP1B and against human EYA3 was less than 3.82 each time.
As to `CCCCc1oc2ccccc2c1C(=O)c1ccc(O)cc1` [Compound 1b], the “effect on migration of MCF10A(EYA2) cells” value in the data set with MCF10A-EYA2 cells is “significantly inhibited cell migration”. For the same compound, the “effect on tubulogenesis, in words” value with HUVECs [1] is recorded as “effective only at the highest concentrations tested (7.5 μM)”. Moreover, the “effect on the developing vasculature” value with zebrafish embryos is reported as “reduced the number of intersegmental vessels, but were less potent”. Also, in the data set on HUVECs [2], the “effect on HUVEC cell motility” value was “attenuated HUVEC cell motility”. For the same compound, the “effect on sprouting of aortic rings” value with mouse aortic rings was “shorter sprouts and significantly lower microvascular density”. Besides, the pIC50 – broadly, the negative decadic logarithm of the IC50, by convention in mol/L – against PTP1B was 4.15.
As for `COc1ccc(C(=O)c2coc3ccc(O)cc23)cc1` [Compound 1e], the pIC50 at Eya3(ED), against PTP1B and on human EYA3 was less than 3.82 in each case.
Turning to `CC(=O)c1cc(Br)c(O)c(Br)c1O` [Compound 1i], the pIC50 at Eya3(ED), against PTP1B and against human EYA3 was less than 3.82 each time.
Consider `COc1ccc(OC)c(C(=O)c2coc3ccc(O)cc23)c1` [Compound 1f], for which the figures for the pIC50 on Eya3(ED), at PTP1B and on human EYA3 were less than 3.82, 3.99 and less than 3.82, respectively.
Turning to `CCc1oc2cc(O)ccc2c1C(=O)c1cc(Br)c(O)c(Br)c1` [6-hydroxybenzbromarone], in data set [3], the half-life (in general, how long it takes for the measured level to halve) is 30 h.
For `O=C(c1cc2ccccc2o1)c1coc2ccc(O)cc12` [Compound 1c], the “effect on migration of MCF10A(EYA2) cells” value in the data set on MCF10A-EYA2 cells was “had no effect on cell motility”. Further, the “effect on the developing vasculature” value in the data set with zebrafish embryos was “no effect on the vasculature”. The “effect on sprouting of aortic rings” value with mouse aortic rings was “negligible effect”. For the same compound, the pIC50 against Eya3(ED) is less than 3.82; at PTP1B, 4.93; against human EYA3, less than 3.82. In addition, the “selectivity EYA3 versus PTP1B, in words” value on PTP1B (pNPP hydrolysis) is on record as “preferentially inhibited PTP1B”.
In the case of `O=C(c1ccc(F)cc1)c1coc2ccc(O)cc12` [Compound 1d], the pIC50 on Eya3(ED), at PTP1B and against human EYA3 was less than 3.82 in each case.
Turning to `COc1ccc(CC(=O)c2ccc(O)cc2O)cc1` [Compound 1h], the pIC50 against Eya3(ED), on PTP1B and against human EYA3 was less than 3.82 each time.
On to `CCCCC(=O)c1ccc(O)cc1` [Compound 1j], for which the negative-log IC50 (pIC50) against Eya3(ED), against PTP1B and on human EYA3 was less than 3.82 in each case.
